Experiments:
[1] = system: SH3, SH2C and SH2N domains of the p85 subunit of PI3K; type: binding
PI3K/Akt = type: cell-based, human
p85 subunit of PI3K = type: binding, human

Question: Which results are given for “NS1: Wild-type nonstructural protein 1 of influenza A H1N1 Puerto Rico/8/34 (SEQ ID NO:2)”?
Answer: interaction of NS1 alone with SH2C domain of p85 [1]: interacted; interaction of NS1 alone with SH3 domain of p85 [1]: interacted; interaction of NS1 with SH2C domain of p85 [1]: precipitated NS1; interaction of NS1 with SH3 domain of p85 [1]: precipitated NS1; Akt phosphorylation in NS1 expressing cells compared with vector (PI3K/Akt): greater degree of Akt phosphorylation; precipitation of NS1 by p85 antibody (p85 subunit of PI3K): did precipitate NS1 protein

Reference: patent US7507411B2, “Attenuated influenza NS1 variants” (University of Saskatchewan, priority 2006, dated 2009)
